From PubChem BioAssay AID1508612

experiment: passive permeability, PAMPA, ADME assay (AID 1508612); settings: pH 7.4, 30.0 min, 50.0 µM

| SMILES | Papp [×10⁻⁶ cm/s] |
| --- | --- |
| COc1cc(-c2cc3c(nc2-c2ccccc2)nc(C(=O)NC2CCN(C)CC2)n3C)ccn1 | > 1000 |
| COc1cc(-c2ccnc3c2c(C)nn3-c2cccc(C(F)(F)F)c2)ccc1O | 93.1 |
| CC1=C(C(=O)Nc2ccccc2)C(c2ccc[nH]2)n2ncnc2N1 (stereo not drawn) | 80 |
| COc1cncc(Nc2ncc(-c3cccc(N(C)C)c3)c3c2OCC3)c1 | < 1 |
| Cn1cnc(S(=O)(=O)Nc2cnccc2C(=O)Nc2nc(-c3ccccc3)cs2)c1 | 1.1 |
| CC(C)NC(=O)c1nc(-c2ccc(Cl)nc2)c2cnccn12 | 723 |
| NC(=O)C1CCN(c2nccc(-c3ccc(Br)cc3)n2)CC1 | 360 |
| Cc1sc2c(c1C)C(c1ccc(Cl)cc1)=N[C@@H](CC(=O)OC(C)(C)C)c1nnc(C)n1-2 | > 1000 |
| COc1ccc(Nc2ncc(C(=O)Nc3cccc(Cl)c3)c3ccccc23)cc1 | 67.1 |
| CCN(CCCOc1ccc2c(Nc3cc(CC(=O)Nc4cccc(F)c4)[nH]n3)ncnc2c1)CCOP(=O)(O)O | < 1 |
| CCn1cc(C(=O)O)c(=O)c2cnc(N3CCN(C(=S)Nc4ccccc4)CC3)nc21 | 12.1 |
| Cc1ccc(CCNC(=O)C2CCCN(C(=O)c3cc4sccc4n3C)C2)cc1 (stereo not drawn) | > 1000 |
| CCCc1cc(C)[nH]c(=O)c1CNC(=O)c1cc(-c2ccc(N3CCN(C(C)C)CC3)nc2)cc2c1cnn2C(C)C | > 1000 |
| CCN1CCCC1CNC(=O)c1cc(S(=O)(=O)CC)c(N)cc1OC (stereo not drawn) | < 1 |
| Cc1c(-c2nsc(NC(=O)c3cccc(Cl)c3)n2)nnn1-c1ccccc1C(F)(F)F | 706 |
| O=C(COc1ccccc1)NCC(c1cccs1)S(=O)(=O)c1ccc(Cl)cc1 (stereo not drawn) | 592 |
| O=C1NCc2ccc(-c3cc4c(ccn4Cc4cccnc4)c(C4=CCOCC4)n3)cc21 | 175 |
| O=C(Nc1ccc(F)cc1F)c1cc(-c2ccc[nH]2)n[nH]1 | 103 |
| CN(C)c1cccc(-c2nccc(N3CCC(C(N)=O)CC3)n2)c1 | 287 |
| O=S(=O)(Nc1cccc2ccncc12)c1ccc(NCc2cccc(Cl)c2O)cc1 | > 1000 |
| Cc1ccc(NC(=O)c2cc(-c3ccc(C)o3)nc3ccccc23)nc1 | > 1000 |
| Cc1cc(C)nc(NC(=S)N2CCN(Cc3ccc(C(F)(F)F)cc3)CC2)c1 | > 1000 |
| Cc1cc(C)nc(NS(=O)(=O)c2ccc(NC(=S)NC(=O)COc3ccc(Br)cc3Cl)cc2)n1 | 457 |
| COc1ccccc1-n1cnc2cc(C(=O)N3CCCCC3)ccc21 | 385 |
| Nc1nc(Nc2ccc(S(N)(=O)=O)cc2)nn1C(=O)c1c(F)cccc1F | 1.61 |
| COc1ccc2nc(C)cc(Nc3ccc(Cl)c(Cl)c3)c2c1 | > 1000 |
| Cn1ccc2c(C(=O)NCc3cccnc3)nc(-c3ccccc3C#N)cc21 | 732 |

| SMILES | Papp [×10⁻⁶ cm/s] |
| --- | --- |
| Oc1cccc2nc3ccccc3nc12 | 513 |
| COc1ccc(C(=O)Nc2ccc3c(c2)N(C2CCCC2)C(=O)c2ccccc2S3)cc1OC | 15.7 |
| Fc1cc(Nc2nc(-c3ccncc3)nc3ccccc23)ccc1C(F)(F)F | 641 |
| CCN1CCN(c2ccc3cc(S(=O)(=O)N4CCOCC4)ccc3n2)CC1 | > 1000 |
| COc1ccccc1NC(=O)C1=C(C)Nc2c(C(=O)Nc3ccc(F)cc3)cnn2C1c1ccc(Cl)cc1 (stereo not drawn) | 302 |
| CSc1ccc(/C=C/c2nc3ccccc3n2S(=O)(=O)c2ccc(Br)cc2)cc1 | > 1000 |
| CCCn1cnc2cc(NCc3ccc(OC)cc3OC)ccc21 | > 1000 |
| COc1ccc(NC(=O)c2cccnc2)cc1S(=O)(=O)Nc1ccc(Br)cc1 | 514 |
| Cc1ccc(C)c(NC2=C(c3ccc(C(F)(F)F)cc3)C(=O)c3ccccc32)c1 | < 1 |
| CC(C)(C)c1ccc(C(=O)Nc2ccc3c(c2)CCCN3C(=O)c2cccs2)cc1 | 181 |
| O=C(NCc1ccccc1)c1nc(S(=O)(=O)Cc2ccc(F)cc2)ncc1Cl | 350 |
| Cc1ccccc1C(=O)N1CCc2cc(-c3ccnc(NC(=O)Cc4ccccc4)n3)ccc21 | > 1000 |
| Cc1nc(-c2ccco2)cc([C@H]2CN3CC[C@H]2C[C@@H]3CNC(=O)NC2CCCCC2)n1 | 475 |
| COc1ccc(OC)c(-c2nnc3n2N=C(c2c(OC)cccc2OC)CS3)c1 | 617 |
| Fc1ccc(Nc2nc(-c3ccncc3Cl)nc3ccccc23)cc1F | 72.2 |
| O=C(Nc1nc(-c2ccccn2)cs1)c1cccc(S(=O)(=O)N2CCOCC2)c1 | 657 |
| CCCCn1cc2c(c1-c1ccc(Br)cc1)c(=O)n(C)c(=O)n2C | > 1000 |
| OCc1ccc(-c2nn(Cc3ccccc3)c3ccccc23)o1 | 842 |
| COc1ccc(Cl)cc1NC(=O)c1sc2nc3c(cc2c1N)N1CCC3CC1 | 55 |
| CC1CCN(C(=O)c2ccc(-c3ccc(N4CCSCC4)nc3)cc2)CC1 | > 1000 |
| CN(C)c1cccc(-c2nnc(N3CCC(C(N)=O)CC3)s2)c1 | 119 |
| COc1ccc(C2=Nn3c([n+](C)c4ccccc43)SC2)cc1 | < 1 |
| CNC(=O)C1CCN(C(=O)c2ccc(-c3ncc4cnc(-c5ccccc5)cn34)cc2)CC1 | 15.4 |
| O=S(=O)(Nc1nccs1)c1ccc(NCc2cccc(O)c2)cc1 | 1.15 |
| CC(Cc1ccc(O)cc1)NCC(O)c1cc(O)cc(O)c1 (stereo not drawn) | 1.9 |
| CCNc1oc(-c2cccc3ccccc23)nc1C#N | 728 |
